Laboratory results reported in patent US11980616B2, “Treating liver disease by selectively eliminating senescent cells” (Buck Institute for Research on Aging, priority 2014, dated 2024).

How the values were obtained:
[1] = tested on: senescent foreskin fibroblasts (Sen(IR)HCA2); assay: Cell count survival assay, irradiation-induced senescent HCA2; assay type: cell-based; conditions: 0, 2.5, 10 μM for 9 days
Procedure: (§1) Foreskin fibroblast cell lines HCA2 and BJ, lung fibroblast cell line IMR90, and mouse embryonic fibroblasts were seeded in six-well plates and induced to senesce with 10 Gy of ionizing radiation (IR) or a 24 hr treatment with doxorubicin (Doxo). Senescent phenotype was allowed to develop for at least 7 days, at which point a cell count was made to determine the baseline number of cells. Nutlin-3a treatment was then initiated for a period of at least 9 days. Media alone or media with drug as appropriate was refreshed at least every three days. At the end of the assay time period, cells are counted. Each condition was seeded in three plate wells and counted independently. Initial cell count serves as a control to determine the induction of senescence, as compared to the last day count without nutlin treatment. Initial non-senescent cell count serves as a proxy to determine Nutlin-3a toxicity.
Foreskin fibroblast cell lines HCA2 and BJ, lung fibroblast cell line IMR90, and mouse embryonic fibroblasts were exposed to 10 Gy of ionizing radiation (IR) to induce senescence. […] Percent survival was calculated as [cell count on day 9 of Nutlin-3a treatment/initial cell count on first day of Nutlin-3a treatment].

[2] = tested on: IL-6 secretion by senescent IMR90 cells; assay: IL-6 secretion ELISA in irradiated senescent IMR90 cells; assay type: cell-based, human; conditions: 10 μM for nine days, then six days without drug; ELISA normalized to cell number
Procedure: In another experiment, IMR90 cells were induced to senesce by irradiation (10 Gy). Seven days after irradiation, cells were treated with 10 μM Nutlin-3a or vehicle (DMSO) for nine days (Day 9). The drug or vehicle was refreshed every three days. Drug/vehicle was removed at Day 9 and the cells were cultured for an additional six days. Conditioned media from the treated cells was collected, and IL-6 measurement by ELISA was performed (Perkin Elmer, AL223F). IL-6 levels in culture media were determined by ELISA using a kit according to manufacturer's instructions (AL223F, Perkin Elmer). Cells were fixed with 4% paraformaldehyde and stained by immunofluorescence with a specific anti-IL-6 antibody (R&D, AF-206-NA). The IL-6 level determined by ELISA was normalized to the number of cells in each well. The data are presented in FIG. 22C as a relative level of IL-6 in the treated cells compared to the level in non-senescent cells (NS). The data are presented as an average of three different cell samples.

[3] = tested on: non-senescent mouse embryonic fibroblasts (Non Sen MEFs); assay: Cell count toxicity assay, non-senescent MEF; assay type: cell-based; conditions: 0, 2.5, 10 μM, 9 days
Procedure: as §1
Non-senescent foreskin fibroblasts (HCA2), lung fibroblasts (IMR90), and mouse embryonic fibroblasts (MEF) were treated with varying concentrations (0, 2.5 μM, and 10 μM) of Nutlin-3a for a period of 9 days to assess Nutlin-3a toxicity. Cell counts were taken at the start (NS start) and end of Nutlin-3a treatment. The difference between counts of cells not treated with Nutlin-3a on day 9 (NS 0) and cell counts determined at day zero (NS start) reflects the cell growth over the indicated time period. […]

[4] = tested on: LDLR-/-/3MR double transgenic mice; assay: Mature atherosclerotic plaques in LDLR-/-/3MR mice, 100 day treatment period; assay type: in vivo, mouse; conditions: vs LDLR-/- control
Procedure: The impact of clearance of senescent cells on the stability and size of mature atherosclerotic plaques was studied in LDLR^−/−/3MR double transgenic mice. From 10 weeks of age, LDLR^−/−/3MR double transgenic mice (10 weeks) and LDLR^−/− single transgenic mice (control) were fed a high fat diet (Harlan Teklad TD.88137) having 42% calories from fat beginning at Week 0 until Week 12.5, when the mice were switched to normal chow diet. Both groups of mice were treated with ganciclovir from week 12.5 over the next 100 days, with each treatment cycle comprising 5 days of ganciclovir (25 mg/kg intraperitoneally daily) and 14 days off. At the end of the 100 day treatment period, the mice were sacrificed, plasma and tissues were collected, and atherosclerosis was quantitated. Descending aortas were dissected and stained with Sudan IV to visualize the plaque lipids. […] Plaques from ganciclovir-treated LDLR^−/− control and LDLR^−/−/3MR mice (see dashed circled plaques in FIGS. 55A-B, respectively) were harvested and cut into cross-sections and stained with […] the general architecture of the atherosclerotic plaques. “#” indicates fat located on the outside of the aorta (see FIG. 55A). The plaques marked with an “*” and “**” in FIGS. 55A and B, respectively, are shown as stained cross-sections in FIGS. […], respectively. […] The plaque from the control mice has identifiable “lipid pockets” accumulating within. […] Disruption or tear in the cap of a lipid-rich plaque is a trigger for coronary events through exposure of plaque thrombogenic components to platelets and clotting components of the blood. Plaques that grow more rapidly as a result of rapid lipid deposition and have thin fibrin caps are prone to rupture. Slowly growing plaques with mature fibrin caps tend to stabilize and are not prone to rupture. Taken together, these experiments indicate that removal of senescent cells may affect atherosclerotic plaque architecture and have a stabilizing effect.

[5] = tested on: LDLR-/-/3MR double transgenic mice fed a HFD; assay: Atherosclerosis model, LDLR-/-/3MR double transgenic mice fed a HFD; assay type: in vivo, mouse; conditions: vs LDLR-/- HFD controls
Procedure: The study illustrated in FIG. 43B assessed the extent to which […] based clearance of senescent cells from LDLR^−/−/3MR double transgenic mice improves pre-existing atherogenic disease. LDLR^−/−/3MR double transgenic mice (10 weeks) and LDLR^−/− single transgenic mice (10 weeks) are fed a high fat diet beginning at Week 0 until Week 12. Gancyclovir is administered to both groups of mice (25 mg/kg intraperitoneally) from weeks 12-13 and weeks 14-15. At week 16, the level of plaque and the number of senescent cells in the plaques are determined.

SMILES | Percent survival [1] | IL-6 level, fold lower than DMSO treated cells [2] | Proliferation (percent growth) [3] | Toxicity (cell number vs starting level) [3] | Atherosclerotic plaques in descending aorta (Sudan IV staining) ([4]; 25 mg/kg i.p. 5 days on, 14 days off, 100 days) | % of the aorta covered in plaques (area of Sudan IV staining) ([4]; 100 day treatment) | Plaque morphology (cross-sections) ([4]; 100 day treatment) | % of the aorta covered with plaque ([5]; 25 mg/kg i.p. weeks 12-13 and 14-15) | Plaque cross-sectional area ([5]; 25 mg/kg i.p.)
COc1ccc(C2=N[C@@H](c3ccc(Cl)cc3)[C@@H](c3ccc(Cl)cc3)N2C(=O)N2CCNC(=O)C2)c(OC(C)C)c1 [Nutlin-3a] | reduced cell survival | 5-9 fold | reduces proliferation | non-toxic | – | – | – | – | –
Nc1nc(O)c2ncn(COC(CO)CO)c2n1 [ganciclovir] | – | – | – | – | fewer atherosclerotic plaques with less intense staining | significantly lower | presence of a thick fibrin cap and the absence of lipid pockets | reduces the % of the aorta covered with plaque | reduced the plaque cross-sectional area
